# Assay results: US9302996B2, “Continuous arycyclic compound” (MITSUBISHI TANABE PHARMA CORPORATION, priority 2010, dated 2016)
# Read-outs that look alike come from different tables or passages of the source.
# How the values were obtained:
# Type in all cases: in vivo
# ICR mice = assay: Triglyceride (TG) in blood plasma increase-inhibiting action due to lipid administration; settings: Mus musculus; male ICR mice, 5 mg/kg oral, lipid (Intralipos 20%) after 30 minutes, plasma TG 2 hours after lipid; read-out: Inhibiting rate of TG-increase in blood plasma (5 mg/kg)
# Summary of the method: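 Male ICR mice (6–9 weeks), fasted overnight, dosed orally with compound in 0.2% CMC; oral lipid emulsion (10 mL/kg) 30 min later. Plasma TG from tail vein before and 2 h after lipid load; rise in TG expressed as percent inhibition versus vehicle group.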
# C57BL/6J mice = assay: Antifeeding activity (high fat diet intake up to 4 hours); settings: Mus musculus, male C57BL/6J mice, 5 mg/kg oral, food ingested up to 4 hours, read-out: Antifeeding rate (5 mg/kg)
# KK-Ay mice = assay: Weight gain-inhibiting action, hypoglycemic effect, insulin in blood plasma lowering action in KK-Ay mice; settings: Mus musculus, 336 h, male KK-Ay mice, high fat diet, 30 mg/kg/day oral, 2 weeks
# Procedure: To 8 weeks-old male KK-Ay mice were provided high fat diet (Oriental Yeast Co., Ltd, 60 cal % fat), and Test compound suspended in 0.2% carboxymethylcellulose solution was orally administered once a day. Oral administration was continued for 2 weeks, and a weight gain-inhibiting rate of the Test compound was calculated by using a weight gain amount of the solvent control group during the test period as 100%. After final administration, the mice were fasted overnight, and blood was collected from tail vein. Measurement of a blood-sugar level was carried out by using glucose Cα Test Wako (Wako Pure Chemical Industries, Ltd.), and measurement of insulin in blood plasma was carried out by using a mouse insulin measurement kit (Morinaga Institute of Biological Science, Inc.).
# [1] = read-out: Hypoglycemic action (30 mg/kg/day)
# [2] = read-out: Insulin in blood plasma-lowering action (30 mg/kg/day)
# [3] = read-out: Weight gain-inhibiting action (30 mg/kg/day)
Compound,inhibition in vivo at 5 mg/kg (ICR mice) [%],inhibition in vivo at 5 mg/kg (C57BL/6J mice) [%],inhibition in vivo at 30 mg/kg (KK-Ay mice; [1]) [%],inhibition in vivo at 30 mg/kg (KK-Ay mice; [2]) [%],inhibition in vivo at 30 mg/kg (KK-Ay mice; [3]) [%]
Cc1nc(OCC(C)(C)C(=O)O)ccc1-c1ccc(-c2ncc(C(F)(F)F)[nH]2)cc1 [Example 74],50,60,56,51,47
CC(C)(COc1ccc(-c2ccc(-c3ncc(C(F)(F)F)[nH]3)c(F)c2)cn1)C(=O)O [Example 76],78,61,65,81,69
Cc1cc(OCC(C)(C)C(=O)O)ncc1-c1ccc(-c2ncc(C(F)(F)F)[nH]2)c(C)c1 [Example 77],75,65,60,65,–
CC(C)(COc1ncc(-c2ccc(-c3ncc(C(F)(F)F)[nH]3)c(F)c2)cc1F)C(=O)O [Example 84],75,64,65,76,48
"CC(C)(COc1ccc(-c2ccc(-c3ncc(C(F)(F)F)[nH]3)nn2)cc1)C(=O)O [Example 87-7), 2,2-dimethyl-3-(4-{6-[4-(trifluoromethyl)-1H-imidazol-2-yl]pyridazin-3-yl}phenoxy)-propanoic acid]",57,59,35,19,22
"CC(C)(COc1cnc(-c2ccc(-c3nc(C(F)(F)F)c[nH]3)cc2)cn1)C(=O)O [Example 89-2), 2,2-dimethyl-3-[(5-{4-[4-(trifluoromethyl)-1H-imidazol-2-yl]phenyl}pyrazin-2-yl)oxy]-propanoic acid]",52,75,68,88,63
CC(C)(COc1cnc(-c2ccc(-c3ncc(C(F)(F)F)[nH]3)nc2)cn1)C(=O)O [Example 92],74,66,63,58,60
"Cc1cc(OCC(C)(C)C(=O)O)ncc1-c1cnc(-c2ncc(C(F)(F)F)[nH]2)cn1 [Example 95-6), 2,2-dimethyl-3-[(4-methyl-5-{5-[5-(trifluoromethyl)-1H-imidazol-2-yl]pyrazin-2-yl}pyridin-2-yl)oxy]propanoic acid]",70,83,66,58,75
"Cc1cc(OCC(C)(C)C(=O)O)ncc1-c1ccc(-c2ncc(CC3CC3)[nH]2)c(F)c1 [Example 96-2), 3-[(5-{4-[5-(cyclopropylmethyl)-1H-imidazol-2-yl]-3-fluorophenyl}-4-methylpyridin-2-yl)oxy]-2,2-dimethylpropanoic acid]",48,58,66,71,75
Cc1cc(OCC(C)(C)C(=O)O)ncc1-c1cnc(-c2ncc(C(F)(F)F)[nH]2)c(F)c1 [Example 107],62,57,57,58,48
Cc1cc(OCC(C)(C)C(=O)O)ncc1-c1cnc(-c2ncc(C(F)(F)F)[nH]2)c(Cl)c1 [Example 112],67,52,49,61,47
Cc1cc(OCC(C)(C)C(=O)O)ncc1-c1cnc(-c2ncc(C(F)(F)F)[nH]2)c(C)c1 [Example 114],64,59,48,60,45
Cc1cc(OCC(C)(C)C(=O)O)ncc1-c1ccc(-c2ncc(CC(C)C)[nH]2)nc1 [Example 117],57,55,36,35,31
Cc1cc(OCC(C)(C)C(=O)O)ncc1-c1ccc(-c2ncc(CC(C)C)[nH]2)c(F)c1 [Example 119],67,51,40,28,36
